This test can be described thus: Serum calcium in the ovariectomised rat (colorimetric assay, day 28). It is filed as in vivo, Sprague Dawley rats. Particulars: ovariectomised rats, 80µg/kg daily for 28days. The method, then: • (a) Female adult (8 weeks old, 200-215g) Sprague Dawley rats were bilaterally ovariectomised (OVX). Animals were kept for 4 weeks […] before commencing treatment. -Purina rat chow (1.00% calcium, 0.61% phosphorous) and water were provided ad libitum. Each study consisted of 6 weight-matched groups (n = 8/group). • (b) Treatment started 4 weeks post-OVX. After 4 weeks, a baseline control OVX group was sacrificed (Group A). The remaining groups were injected once a day with vehicle (Group B), 1µg/kg body weight (Group C), 10µg/kg body weight (Group D), 100µg/kg body weight (Group E) of GnRH-II, and 80µg/kg body weight (Group F) of hPTH(1-34). • (c) All rats were weighed every fourth day and dosages adjusted for 50g increase in mean group weight. Rats were given alternate subcutaneous injections ofcalcein (30mg/kg) or tetracyclin (30mg/kg) in 2% sodium bicarbonate-saline, respectively to label mineralization surfaces on days 10, 19 and 26, following treatment with drug. Bone mineral density was assessed by dual energy x-ray absorptometry-DEXA). On day 28 serum calcium levels were determined by colorimetric assay using a commercial kit. • (d) Success of OVX was confirmed at necropsy by failure to detect ovarian tissue and by observation of marked atrophy of the uterine horns. Both legs were disarticulated at the hip. […]

For “PTH: Parathyroid hormone, hPTH(1-34), 80µg/kg comparison group (Group F) (SVSEIQLMHNLGKHLNSMERVEWLRKKLQDVHNF; Parathyroid hormone; UniProt P01270 32-65, looked up, fragment)”, the serum calcium result was “pronounced hypercalcemia”.

Values taken from patent EP1124847B1, “LHRH ANALOGUES FOR THE TREATMENT OF OSTEOPOROSIS” (Ferring B.V., priority 1998, dated 2004).
